Laboratory results: PMC11420707, “Functional and Immunologic Mapping of Domains of the Reticulocyte-Binding Protein Plasmodium vivax PvRBP2a” (The Journal of Infectious Diseases, 2024)
Residues, ends and D or L forms follow the SMILES beside them. *: point of attachment. Biotin = O=C1N[C@H]2[C@H](CS[C@H]2CCCCC(=O)*)N1

What was measured:
[1] = system: sera from donors infected with P vivax; assay: ELISA of peptide antigenicity against donor sera; type: binding, human; details: for antigenicity against the seropositive sera mix: individual peptides, pooled sera of 20 P vivax-infected donors 1:267; for antigenic in seropositive cases (cases/donors): individual seropositive sera 1:1000, 20 donors
From the text: We next sought to identify the immunodominant epitopes within the PvRBP2a23-767 CD98-binding domain. Groups of 5 adjacent peptides each were pooled and examined for antigenicity against a mix of sera from 20 donors infected with P vivax (positive by blood smear microscopy) via enzyme-linked immunosorbent assay (Figure 2A). Binding against at least 15 negative donors (non–P vivax exposed) was also examined to control for nonspecific binding. […] To confirm their antigenicity, these peptides were then examined against individual seropositive or seronegative sera. PepLib 3 and PepLib 53 were antigenic in a minority of seropositive cases (7/20 and 2/20, respectively; Supplementary Figure 3B), whereas PepLib 52 was antigenic in most seropositive cases (18/20; Figure 2B). Thus, we identified PepLib 52 (PvRBP2a431-448) as the most reactive linear B-cell epitope in the CD98-binding region of PvRBP2a.
Figure 2. Identification of antigenic and functional linear epitopes of PvRBP2a. A, Peptides were pooled into groups of 5 and coated on streptavidin plates. Pooled sera were added from donors infected with Plasmodium vivax. Following washing, binding of peptides to donor sera was quantified with an anti-human horseradish peroxidase secondary antibody. The baseline was determined to be the mean + 3 SD of the reactivity of the seronegative sample pool to all peptide pools, and peptide pools showing a greater optical density (OD) value were deemed immunoreactive. B, The antigenicity of the antigenic peptide hit, PepLib_52, was confirmed by plasma from 20 donors who were seropositive and 22 who were seronegative. C, The effect of PvRBP2a-derived linear epitope peptides on P vivax invasion was examined on 5 P vivax clinical isolates. Selected CD98-binding PvRBP2a peptide candidates that were in cluster A (PepLib_25, PepLib_49) or cluster B/immunodominant (PepLib_41, PepLib_52), as well as negative control peptides (PepLib_50, PepLib_56) and positive control monoclonal antibodies (anti-Duffy 2C3, anti-CD98 HBJ127), were tested for their ability to inhibit P vivax invasion into reticulocytes. One well without addition of peptide or antibody served as a control for measurement of baseline reinvasion level. *P < .05 by 2-tailed t test with Shapiro-Wilk normality test.
Streptavidin-coated plates (Pierce) were blocked with 1% casein/1% BSA in 0.1% PBST overnight at 4°C, then coated with blocked with PvRBP2a-derived biotinylated peptides at 1:1000 dilution (approximately 15ug/ml) in 0.2% casein/0.2% BSA at room temperature for 1 hour. Pooled or individual donor sera was then applied at 1:267 (pooled) or 1:1000 (individual) dilution in 0.2% casein/0.2% BSA at room temperature for 1 hour, followed by secondary goat […] IgG-HRP at 1:1000 dilution in 0.1% casein/0.1% BSA at room temperature for 1 hour, then TMB substrate (Surmodics, BioFX® TMB One Component HRP Microwell Substrate) incubation for 5 minutes.

[2] = system: P vivax invasion into human reticulocytes; assay: Inhibition of P vivax reticulocyte invasion; type: cell-based, Plasmodium vivax; details: peptide 100 µg/mL, 5 P vivax clinical isolates, parasitemia at 24 hours versus well without peptide
Experimental: • Antibodies: anti-CD98 mouse IgG1 mAb HBJ127 [8] (Absolute Antibody) and anti-human DARC mouse IG1 mAb 2C3 [9] (Absolute Antibody); working concentration, 25 µg/mL • Cluster A or B PvRBP2a peptides: PepLib 25, 41, 49, 52; working concentration, 100 µg/mL • Control PvRBP2a peptides: PepLib 50, 56; working concentration, 100 µg/mL
Fresh/frozen blood isolates of P vivax were matured in vitro and late stages concentrated with MACS LD columns. Purified infected red blood cells were mixed with cord blood–derived CD71+ reticulocytes (sorted with CD71 beads + MACS LS columns). Infected red blood cell–reticulocyte mixtures were each mixed with an antibody/peptide as stated previously. Wells without peptide/antibody served as controls. All groups were cultivated in vitro as described before. Smears were made at the start (H0) to ensure that ring-stage parasitemia was 0% and 24 hours later (H24) to determine parasitemia (10 000 red blood cells counted). Statistically significant differences were identified by 2-tailed paired t test with Shapiro-Wilk normality test, performed in Prism 10.1.2 (GraphPad).

[3] = system: fresh human reticulocytes; assay: Reticulocyte-binding assay (flow cytometry); type: cell-based; details: 15 µg/mL biotinylated peptide, 37°C 1 hour; for binding to reticulocytes (% of reticulocytes bound): CD71-enriched cord blood reticulocytes, streptavidin-APC and thiazole orange, 2 independent replicates
Experimental: Fresh human cord blood was enriched for reticulocytes with CD71 microbeads and MACS columns (supplementary methods). Reticulocytes were washed twice with cold phosphate-buffered saline, added to 15 µg/mL of peptide solution, and incubated at 37°C for 1 hour. Reticulocytes were then stained with streptavidin-APC and thiazole orange at 37°C for 1 hour, washed, and acquired on a flow cytometer.
Reticulocytes were enriched from the human cord blood through the selection of CD71+ reticulocytes, using human CD71 microbeads (Miltenyi Biotec, clone AC108.1). Around 1-2ml of blood at 50% haematocrit in PBS was passed through a LS column. After two washing steps using PBS, the reticulocytes were stained with reticulocyte stain (Sigma Aldrich New Methylene Blue) and viewed under the microscope to ensure >80% purity of reticulocytes after selection.

[4] = target: soluble recombinant CD98 protein (Homo sapiens, UniProt P08195); assay: biochemical
Experimental: PvRBP2a epitopes for reticulocyte and CD98 binding. […] Reticulocytes were blocked with the polyclonal rabbit anti-CD98 antibody (KE020) or a rabbit isotype control antibody for 15 minutes before staining with biotinylated peptide candidates and detection with streptavidin-APC. Reticulocytes were distinguished from normocytes via thiazole orange staining. […] (B) Candidate binding peptides were tested for direct binding to CD98 via biolayer interferometry. 2µM biotinylated peptides were loaded onto streptavidin-coated sensors, which was immersed in a solution of 200nM CD98 to assess binding. (C) Peptides with detectable binding in the initial binding screen were further analyzed for their binding kinetics to CD98 via biolayer interferometry, with 3 independent replicates. The mean and standard error for dissociation constant (KD), on-rate (ka) and off-rate (kd) are given.
Binding sensorgrams were collected on the Octet Red 96e system. Fresh streptavidin sensors were used without any regeneration step. Streptavidin sensor, without biotinylated peptide loading, but with maximum concentration of non-biotinylated CD98 was used as the reference. Kinetic binding assays were performed using Octet Data Acquisition version 10.0.1.3 at 37°C with orbital shaking speed of 1,000 rpm. The assay was carried out in PBS buffer supplemented with 0.05% Tween-20 and 1mg/mL BSA (PBST/BSA). For initial screening, the biosensor was sequentially dipped into wells containing 200µL of solution each: i) baseline, PBST/BSA (30 s), ii) loading, 2µM biotinylated peptide fragment or vehicle control (VC) (5 min), iii) washing, PBST/BSA (30 s), iv) blocking, 25µM biocytin (5 min) to minimize non-specific binding of CD98, v) washing, PBST/BSA (30 s), vi) association, 200 nM non-biotinylated CD98 (30 min) and vii) dissociation, PBST/BSA (15 min).

[5] = target: PepLib_36 (PvRBP2a_(303-320)) (Plasmodium vivax); assay: BLI; biotinylated peptides (2 µM) loaded onto streptavidin-coated sensors, immersed in a solution of 200nM CD98
[6] = target: PepLib_49 (PvRBP2a_(407-424)) (Plasmodium vivax); assay: as above
[7] = target: PepLib_21 (PvRBP2a_(183-200)) (Plasmodium vivax); assay: as above
[8] = target: PepLib_40 (PvRBP2a_(335-352)) (Plasmodium vivax); assay: as above

Chain of soluble recombinant CD98 protein (P08195 218-630): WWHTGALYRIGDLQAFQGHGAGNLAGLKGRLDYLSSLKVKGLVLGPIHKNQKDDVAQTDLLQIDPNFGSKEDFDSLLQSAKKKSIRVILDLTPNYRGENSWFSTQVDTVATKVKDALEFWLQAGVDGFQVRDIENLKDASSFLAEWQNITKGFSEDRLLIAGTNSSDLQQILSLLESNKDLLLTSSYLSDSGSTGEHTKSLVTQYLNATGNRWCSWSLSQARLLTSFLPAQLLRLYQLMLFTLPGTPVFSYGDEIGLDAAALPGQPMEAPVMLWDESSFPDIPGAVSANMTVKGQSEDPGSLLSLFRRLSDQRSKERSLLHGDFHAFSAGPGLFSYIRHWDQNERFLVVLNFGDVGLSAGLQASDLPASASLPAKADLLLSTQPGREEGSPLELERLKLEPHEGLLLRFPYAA

TAALKEKGKLLANLYNKL [PepLib_52, biotinylated 18-mer of the PvRBP2a23-767 peptide library]
antigenicity against the seropositive sera mix [1]: showed antigenicity | antigenic in seropositive cases (cases/donors) [1]: 18/20 | inhibition of parasite invasion into reticulocytes, mean [2]: 60.2% | binding to reticulocytes (in words) [3]: did not bind directly to reticulocytes

CC[C@H](C)[C@H](NC(=O)[C@H](CCC(=O)O)NC(=O)[C@H](CCC(N)=O)NC(=O)[C@H](CCCCN)NC(=O)[C@@H](NC(=O)[C@H](CCCCN)NC(=O)[C@H](CC(C)C)NC(=O)[C@H](CCSC)NC(=O)[C@H](CC(C)C)NC(=O)[C@@H](NC(=O)[C@@H](NC(=O)CNC(=O)[C@H](CC(C)C)NC(=O)[C@H](CCC(N)=O)NC(=O)[C@H](CC(C)C)NC(=O)[C@H](CO)NC(=O)[C@H](C)NC(=O)[C@H](CCCCN)NC(=O)CNC(=O)[C@H](CO)NC(=O)CNC(=O)[C@H](CO)NC(=O)CCCC[C@@H]1SC[C@@H]2NC(=O)N[C@@H]21)C(C)C)[C@@H](C)O)C(C)C)C(=O)O [PepLib_40] (Biotin-SGSGKASLQLGVTLMLKVKQEI-OH)
Kd [4]: 70 nM

ADYARYSNLQIIDIKSKY [PepLib_60, biotinylated 18-mer of the PvRBP2a23-767 peptide library]
binding to reticulocytes (% of reticulocytes bound) [3]: ≥ 10%

WPLQDSLNESDKFEYTNG [PepLib_3, biotinylated 18-mer of the PvRBP2a23-767 peptide library]
antigenicity against the seropositive sera mix [1]: showed antigenicity | antigenic in seropositive cases (cases/donors) [1]: 7/20

TLMLKVKQEIDNNVTISA [PepLib_41, biotinylated 18-mer of the PvRBP2a23-767 peptide library]
inhibition of parasite invasion into reticulocytes, mean [2]: −1.1% | binding to reticulocytes (% of reticulocytes bound) [3]: ≥ 10%

CC[C@H](C)[C@H](NC(=O)[C@H](CCC(=O)O)NC(=O)[C@H](C)NC(=O)[C@H](Cc1ccccc1)NC(=O)[C@H](Cc1ccc(O)cc1)NC(=O)[C@H](CC(N)=O)NC(=O)[C@H](CCSC)NC(=O)[C@H](CCC(N)=O)NC(=O)[C@@H](NC(=O)CNC(=O)[C@H](CO)NC(=O)CNC(=O)[C@H](CO)NC(=O)CCCC[C@@H]1SC[C@@H]2NC(=O)N[C@@H]21)C(C)C)C(=O)N[C@@H](CCCCN)C(=O)N[C@@H](Cc1ccc(O)cc1)C(=O)N[C@@H](Cc1ccc(O)cc1)C(=O)N[C@H](C(=O)N[C@H](C(=O)N[C@@H](Cc1ccc(O)cc1)C(=O)N[C@@H](Cc1c[nH]cn1)C(=O)N[C@@H](Cc1ccc(O)cc1)C(=O)N[C@@H](CCC(=O)O)C(=O)O)[C@@H](C)O)[C@@H](C)CC [PepLib_21] (Biotin-SGSGVQMNYFAEIKYYITYHYE-OH)
Kd [4]: 54.9 nM

NFYATYKFSLKRADTTTA [PepLib_50, biotinylated 18-mer of the PvRBP2a23-767 peptide library; negative control peptide]
inhibition of parasite invasion into reticulocytes, mean [2]: 10.4% | binding to reticulocytes (in words) [3]: do not show binding to reticulocytes

CC(C)C[C@H](NC(=O)[C@H](CO)NC(=O)[C@H](Cc1ccccc1)NC(=O)[C@H](CCCCN)NC(=O)[C@H](Cc1ccc(O)cc1)NC(=O)[C@@H](NC(=O)[C@H](C)NC(=O)[C@H](Cc1ccc(O)cc1)NC(=O)[C@H](Cc1ccccc1)NC(=O)[C@H](CC(N)=O)NC(=O)[C@H](C)NC(=O)[C@H](CO)NC(=O)[C@H](CC(=O)O)NC(=O)[C@H](Cc1ccccc1)NC(=O)[C@H](Cc1ccc(O)cc1)NC(=O)[C@H](CC(C)C)NC(=O)[C@H](CCCCN)NC(=O)[C@H](CCCCN)NC(=O)CNC(=O)[C@H](CO)NC(=O)CNC(=O)[C@H](CO)NC(=O)CCCC[C@@H]1SC[C@@H]2NC(=O)N[C@@H]21)[C@@H](C)O)C(=O)O [PepLib_49] (Biotin-SGSGKKLYFDSANFYATYKFSL-OH)
Kd [4]: 90.3 nM

PLMSSIQNQINSCVPKKA [PepLib_25, biotinylated 18-mer of the PvRBP2a23-767 peptide library]
inhibition of parasite invasion into reticulocytes, mean [2]: 49.6% | binding to reticulocytes (% of reticulocytes bound) [3]: ≥ 10%

YVNYLSTLKASLQLGVTL [PepLib_39, biotinylated 18-mer of the PvRBP2a23-767 peptide library]
binding to reticulocytes (% of reticulocytes bound) [3]: ≥ 10%

KLLANLYNKLITYVSEKI [PepLib_53, biotinylated 18-mer of the PvRBP2a23-767 peptide library]
antigenicity against the seropositive sera mix [1]: showed antigenicity | antigenic in seropositive cases (cases/donors) [1]: 2/20 | binding to reticulocytes (% of reticulocytes bound) [3]: ≥ 10%

soluble recombinant CD98 protein (from UniProt P08195 1-529) (receptor)
Kd [5]: 47.5 nM | Kd [6]: 90.3 nM | Kd [7]: 54.9 nM | Kd [8]: 70 nM

LYFISKSESMISEFEDTF [PepLib_56, biotinylated 18-mer of the PvRBP2a23-767 peptide library; negative control peptide]
inhibition of parasite invasion into reticulocytes, mean [2]: 50% | binding to reticulocytes (in words) [3]: do not show binding to reticulocytes

CC[C@H](C)[C@H](NC(=O)[C@H](CCC(=O)O)NC(=O)[C@H](Cc1ccc(O)cc1)NC(=O)[C@@H](NC(=O)[C@H](CC(=O)O)NC(=O)[C@@H](NC(=O)[C@H](CCC(=O)O)NC(=O)[C@H](CS)NC(=O)CNC(=O)[C@H](CO)NC(=O)CNC(=O)[C@H](CO)NC(=O)CCCC[C@@H]1SC[C@@H]2NC(=O)N[C@@H]21)[C@@H](C)O)[C@@H](C)O)C(=O)N[C@@H](CCSC)C(=O)N[C@@H](CC(C)C)C(=O)N[C@@H](CCC(=O)O)C(=O)N[C@H](C(=O)N[C@@H](Cc1ccc(O)cc1)C(=O)N[C@H](C(=O)N[C@@H](CCC(=O)O)C(=O)N[C@@H](CCCNC(=N)N)C(=O)N[C@H](C(=O)N[C@@H](CCCCN)C(=O)O)C(C)C)C(C)C)[C@@H](C)CC [PepLib_36] (Biotin-SGSGCETDTYEIMLEIYVERVK-OH)
Kd [4]: 47.5 nM
